Experiment [1] deals with JAK1 (recombinant purified GST-tagged catalytic domain) (Homo sapiens (Human), UniProt P23458).
Experiment [2] addresses JAK2 (recombinant purified GST-tagged catalytic domain) (Homo sapiens (Human), UniProt O60674).

By IC50 is commonly meant the concentration needed to halve the response being measured.

Sequence of JAK2 (recombinant purified GST-tagged catalytic domain) (O60674 849-1124): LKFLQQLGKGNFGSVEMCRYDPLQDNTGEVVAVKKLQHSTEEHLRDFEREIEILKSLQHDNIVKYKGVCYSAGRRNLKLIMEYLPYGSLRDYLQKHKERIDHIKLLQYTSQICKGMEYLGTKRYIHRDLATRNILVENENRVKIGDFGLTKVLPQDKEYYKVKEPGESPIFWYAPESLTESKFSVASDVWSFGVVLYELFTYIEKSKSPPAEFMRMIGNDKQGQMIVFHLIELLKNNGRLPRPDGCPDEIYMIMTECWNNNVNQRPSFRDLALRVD
Sequence of JAK1 (recombinant purified GST-tagged catalytic domain) (P23458 875-1153): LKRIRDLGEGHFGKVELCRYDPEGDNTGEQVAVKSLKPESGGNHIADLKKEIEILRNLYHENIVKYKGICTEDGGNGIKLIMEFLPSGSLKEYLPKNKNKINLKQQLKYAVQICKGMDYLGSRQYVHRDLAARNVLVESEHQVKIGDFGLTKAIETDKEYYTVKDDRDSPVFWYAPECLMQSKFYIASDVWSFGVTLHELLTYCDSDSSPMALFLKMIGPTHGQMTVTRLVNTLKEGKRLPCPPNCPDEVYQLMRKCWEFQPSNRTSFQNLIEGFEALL

Regarding `COCCN[C@H]1CCC(n2cc(C(N)=O)c(Nc3ccc(S(=O)(=O)C(F)(F)F)cc3)n2)[C@@H](C#N)C1` (stereo partly drawn) [Example 27-16, 1-{(1S,2S,4S and1R,2R,4R)-2-cyano-4-[(2-methoxyethyl)amino]cyclohexyl}-3-({4-[(trifluoromethyl)sulfonyl]phenyl)amino)-1H-pyrazole-4-carboxamide], the IC50 in experiment [1] was found to be 1 nM; in experiment [2], 35 nM.
Take `CC(C)(C)OC(=O)NCC1CC[C@H](C#N)[C@@H](n2cc(C(N)=O)c(Nc3ccc(F)cc3)n2)C1` (single isomer, unassigned) [Example 11-9, tert-butyl {[(1R or S 3S,4S) and (1S or R, 3R, 4R)]-3-{4-carbamoyl-3-[(4-fluorophenyl)amino]-1H-pyrazol-1-yl}-4-cyanocyclohexyl]methyl}carbamate]: the IC50 in experiment [1] stood at 21 nM; in experiment [2] it was 434 nM.
Take `CC(C)(C)OC(=O)NCC1CC[C@H](C#N)[C@@H](n2cc(C(N)=O)c(Nc3ccc(F)cc3)n2)C1` (single isomer, unassigned) [Example 11-10, tert-butyl {[(1S or R,3S,4S) and (1R or S,3R,4R)]-3-{4-carbamoyl-3-[(4-fluorophenyl)amino]-1H-pyrazol-1-yl}-4-cyanocyclohexyl]methyl}carbamate]: the IC50 amounted to 110 nM in experiment [1] and 1300 nM in experiment [2].
On the same counts, the results for `N#C[C@H]1CC[C@H](NCc2ccccc2)C[C@@H]1n1cc(C(N)=O)c(Nc2ccc(F)cc2)n1` (mixture of isomers) [Example 6-4, 1-{[(1S,2S,5S) and (1R,2R,5R)]-5-(benzylamino)-2-cyanocyclohexyl}-3-[(4-fluorophenyl)amino]-1H-pyrazole-4-carboxamide] are 4 nM and 55 nM.
On the same counts, the results for `N#C[C@@H]1CCC2(C[C@H]1n1cc(C(N)=O)c(Nc3ccccc3)n1)OCCO2` (single isomer, unassigned) [Example 45-1, 1-[(7R,8R or 7S,8S)-8-Cyano-1,4-dioxaspiro[4.5]dec-7-yl]-3-(phenylamino)-1H-pyrazole-4-carboxamide] are 44 nM and 235 nM.
For `N#C[C@H]1C[C@@H](N2CCC2)CC[C@@H]1n1cc(C(N)=O)c(Nc2ccc(OC(F)F)nc2)n1` (single isomer, unassigned) [Example 28-3, 1-[(1S,2S,4S or 1R,2R,4R)-4-(azetidin-1-yl)-2-cyanocyclohexyl]-3-{[6-(difluoromethoxy)pyridin-3-yl]amino}-1H-pyrazole-4-carboxamide] the same measures were 5 nM and 87 nM.
`N#C[C@H]1CCCCC1n1cc(C(N)=O)c(Nc2ccc(S(=O)(=O)C(F)F)c(CO)c2)n1` (mixture of isomers) [Example 17-64, 1-[(1S,2S and 1R,2R )-2-cyanocyclohexyl]-3-({4-[(difluoromethyl)sulfonyl]-3-(hydroxymethyl)phenyl}amino)-1H-pyrazole-4-carboxamide]: the IC50 in experiment [1] came out at 2 nM; in experiment [2] it was 14 nM.
On the same counts, the results for `N#C[C@@H]1CCC2(C[C@@H]1n1cc(C(N)=O)c(Nc3ccccc3)n1)OCCO2` (single isomer, unassigned) [Example 45-2, 1-[(7S,8R or 7R,8S)-8-Cyano-1,4-dioxaspiro[4.5]dec-7-yl]-3-(phenylamino)-1H-pyrazole-4-carboxamide] are 0.85 nM and 4 nM.
As for `N#C[C@@H]1CCC[C@@H]1n1cc(C(N)=O)c(Nc2ccccc2)n1` (mixture of isomers) [Example 1-1, 1-{[(1S,2R) and (1R,2S)]-2-cyanocyclopentyl]}-3-(phenylamino)-1H-pyrazole-4-carboxamide], the results for the IC50 in experiment [1] and in experiment [2] were 96 nM and 696 nM, respectively.
For `N#C[C@H]1CC[C@@H](NCc2ccccc2)C[C@@H]1n1cc(C(N)=O)c(Nc2ccc(F)cc2)n1` (mixture of isomers) [Example 6-6, 1-{[(1S,2S,5R) and (1R,2R,5S)]-5-(benzylamino)-2-cyanocyclohexyl}-3-[(4-fluorophenyl)amino]-1H-pyrazole-4-carboxamide] the same measures were 11 nM and 170 nM.
On the same counts, the results for `C[C@]1(C#N)CC[C@@H](F)C[C@@H]1n1cc(C(N)=O)c(Nc2ccc(F)cc2)n1` (mixture of isomers) [Example 19-1, 1-((1S,2S,5R and 1R,2R,5S)-2-cyano-5-fluoro-2-methylcyclohexyl)-3-((4-fluorophenyl)amino)-1H-pyrazole-4-carboxamide] are 3 nM and 8 nM.
Take `CS(=O)(=O)c1ccc(Nc2nn([C@H]3CCC[C@H]3C#N)cc2C(N)=O)cc1` (mixture of isomers) [Example 1-5, 1-{[(1S,2R) and (1R,2S)]-2-cyanocyclopentyl]}-3-{[4-(methylsulfonyl)phenyl]amino}-1H-pyrazole-4-carboxamide]: the values for the IC50 in experiment [1] and in experiment [2] were 5 nM and 82 nM, respectively.
On the same counts, the results for `N#C[C@H]1CCCC[C@@H]1n1cc(C(N)=O)c(Nc2cc(Cl)cc(Cl)c2)n1` (single isomer, unassigned) [Example 17-54, 1-[(1S,2S or 1R, 2R)-2-cyanocyclohexyl]-3-[(3,5-dichlorophenyl)amino]-1H-pyrazole-4-carboxamide] are 18 nM and 119 nM.
On the same counts, the results for `CN(C)[C@@H]1CC[C@H](C#N)[C@@H](n2cc(C(N)=O)c(Nc3ccc(F)cc3)n2)C1` (mixture of isomers) [Example 6-2, 1-[(1S,2S,5R and 1R,2R,5S)-2-cyano-5-(dimethylamino)cyclohexyl]-3-[(4-fluorophenyl)amino]-1H-pyrazole-4-carboxamide] are 305 nM and > 1500 nM.
For `CC1(C)CC[C@H](C#N)[C@@H](n2cc(C(N)=O)c(Nc3ccccc3)n2)C1` (mixture of isomers) [Example 11-1, 1-{[(1S,2S) and (1R,2R)]-2-Cyano-5,5-dimethylcyclohexyl}-3-(phenylamino)-1H-pyrazole-4-carboxamide] the same measures were 54 nM and 176 nM.
As for `CC[N+]1([C@H]2CC[C@H](n3cc(C(N)=O)c(Nc4ccc(Cl)cc4)n3)[C@@H](C#N)C2)CCC1` [Example 31-3, 1-[(1S,3S,4S)-4-{4-carbamoyl-3-[(4-chlorophenyl)amino]-1H-pyrazol-1-yl}-3-cyanocyclohexyl]-1-ethylazetidinium], the results for the IC50 in experiment [1] and in experiment [2] were 1 nM and 28 nM, respectively.
As to `CC1(C)C[N+](C)([C@H]2CC[C@H](n3cc(C(N)=O)c(Nc4ccc(Cl)cc4)n3)[C@@H](C#N)C2)C1` [Example 31-4, 1-[(1S,3S,4S)-4-{4-carbamoyl-3-[(4-chlorophenyl)amino]-1H-pyrazol-1-yl}-3-cyanocyclohexyl]-1,3,3-trimethylazetidinium], the values for the IC50 in experiment [1] and in experiment [2] were 1 nM and 34 nM, respectively.
For the compound `N#C[C@@H]1CCC2(C[C@H]1n1cc(C(N)=O)c(Nc3ccccc3)n1)OCCO2` (single isomer, unassigned) [Example 45-3, 1-[(7R,8R or 7S,8S)-8-Cyano-1,4-dioxaspiro[4.5]dec-7-yl]-3-(phenylamino)-1H-pyrazole-4-carboxamide], the values for the IC50 in experiment [1] and in experiment [2] were 147 nM and 308 nM, respectively.
On to `CC1(C)CN(C(=O)[C@@H]2CC[C@@H](n3cc(C(N)=O)c(Nc4ccc(Cl)cc4)n3)[C@H](C#N)C2)C1` (single isomer, unassigned) [Example 35-2, 3-(4-chlorophenylamino)-1-((1R,2R,4R or 1S,2S,4S)-2-cyano-4-(3,3-dimethylazetidine-1-carbonyl)cyclohexyl)-1H-pyrazole-4-carboxamide], for which the concentration for half-maximal inhibition (IC50) in experiment [1] was determined as 9 nM; in experiment [2], 290 nM.
For `N#CC1CCC2(CC1n1cc(C(N)=O)c(Nc3ccccc3)n1)OCCO2` (stereo not drawn) [Example 2-3, 1-(8-cyano-1,4-dioxaspiro[4.5]dec-7-yl)-3-(phenylamino)-1H-pyrazole-4-carboxamide] the same measures were 9 nM and 47 nM.
For `C[C@]1(C#N)CCCC[C@@H]1n1cc(C(N)=O)c(Nc2ccc(F)cc2)n1` (mixture of isomers) [Example 19-2, 1-((1S,2S and 1R,2R)-2-cyano-2-methylcyclohexyl)-3-((4-fluorophenyl)amino)-1H-pyrazole-4-carboxamide] the same measures were 4 nM and 11 nM.
For `COC(=O)[C@H]1CCC(n2cc(C(N)=O)c(Nc3ccc(F)cc3)n2)[C@@H](C#N)C1` (stereo partly drawn) [Example 7-2] the same measures were 14 nM and 101 nM.
For `CN(C)[C@H]1CC[C@H](C#N)[C@@H](n2cc(C(N)=O)c(Nc3ccc(F)cc3)n2)C1` (mixture of isomers) [Example 6-1, 1-[(1S,2S,5S and 1R,2R,5R)-2-cyano-5-(dimethylamino)cyclohexyl]-3-[(4-fluorophenyl)amino]-1H-pyrazole-4-carboxamide], the results for the IC50 in experiment [1] and in experiment [2] were 410 nM and > 1500 nM, respectively.
On the same counts, the results for `CN[C@H]1CC[C@H](C#N)[C@@H](n2cc(C(N)=O)c(Nc3ccc(F)cc3)n2)C1` (mixture of isomers) [Example 6-5, 1-{[(1S,2S,5S) and (1R,2R,5R)-2-cyano-5-(methylamino)cyclohexyl]-3-[(4-fluorophenyl)amino]-1H-pyrazole-4-carboxamide] are 410 nM and > 1500 nM.
For the compound `N#C[C@@H]1CCCC(F)[C@@H]1n1cc(C(N)=O)c(Nc2ccccc2)n1` (stereo partly drawn) [Example 23-2], the IC50 in experiment [1] is 67 nM; in experiment [2], 212 nM.
On the same counts, the results for `CC(C)(C)OC(=O)C1CC[C@@H](C#N)[C@@H](n2cc(C(N)=O)c(Nc3ccccc3)n2)C1` (mixture of isomers) [Example 12-2, (3S,4R and 3R,4S)-tert-butyl 3-(4-carbamoyl-3-(phenylamino)-1H-pyrazol-1-yl)-4-cyanocyclohexanecarboxylate] are 257 nM and > 1500 nM.
`N#C[C@H]1CC(F)CC[C@@H]1n1cc(C(N)=O)c(Nc2ccccc2)n1` (mixture of isomers) [Example 22-1, 1-[(1S,2S and 1R,2R)-2-Cyano-4-fluorocyclohexyl]-3-(phenylamino)-1H-pyrazole-4-carboxamide]: the IC50 was 4 nM in experiment [1] and 28 nM in experiment [2].

For the origin of these results see patent US8962608B2, “Cycloalkylnitrile pyrazole carboxamides as janus kinase inhibitors” (Merck Sharp & Dohme Corp., priority 2011, dated 2015).
